Experimental findings from publication PMC8241751, “Influence of the Dabcyl group on the cellular uptake of cationic peptides: short oligoarginines as efficient cell-penetrating peptides” (Amino Acids, 2021) are described below.

SMILES strings stand for the structures. Where a SMILES comes first, the peptide text is derived from it. The star is where a group is joined. 5FAM = O=C1OC2(c3ccc(O)cc3Oc3cc(O)ccc32)c2ccc(C(=O)*)cc21; X1 = CN(C)c1ccc(/N=N/c2ccc(C(=O)*)cc2)cc1

One data set deals with HeLa cells. The data set is described as follows: Confocal microscopy of internalisation into HeLa cells. It counts as cell-based, human. The settings on record: 5 μM, serum free (–) medium, 37 °C. The protocol: HeLa cells (2.0 × 10^5 cells) seeded in 35-mm glass-bottomed dishes (Iwaki) were cultured at a 37 °C incubator for 24 h. The cells were then incubated with peptide in α-MEM( +) and α-MEM(–) for 30 min at 37 °C or 4 °C. After washing with PBS( +) containing 0.5% (w/v) heparin, intracellular distribution of the fluorescently-labelled peptides was analysed without fixing using a confocal microscope (FV1000, Olympus). For time-lapse imaging, the cells were placed at 37 °C in a microchamber (MI-IBC-IF, Olympus) attached on the stage of the inverted microscope. The cells were then treated with 5 µM of Dabcyl–Arg6–Lys(Rh)–NH2 or Dabcyl–Arg4–Lys(Cf)–NH2 in α-MEM( +) or α-MEM(–). Time 0 represents the image immediately after the addition of conjugates.

Data set [1] deals with CHO-K1 cells. The data set is described as follows: In vitro cytotoxicity assay (CCK-8). The format is cell-based, Chinese Hamster. The note with it: different concentrations (0-20 µM), 1 h, 37 °C. The protocol: Cytotoxicity was determined with the Cell Counting Kit 8 (CCK-8) from Dojindo Molecular Technologies using CHO-K1 cells. This colorimetric assay allows to measure the viability of cells. 96-well plates were inoculated with 100 μL/well of a suspension of cells (2 × 10^4 cells/well). […] After washing, the cells were incubated with 100 μL of 10% CCK-8 in DMEM for 3 h and the absorbance was measured at λ= 450 nm with a microplate reader (Polarstar Optima). Controls corresponded to untreated cells with DMEM (negative control, 100% viability) and cells treated with 0.1% of Triton X-100 (positive control, 0% viability).

Data set [2] relates to HL-60 cells. The data set is described as follows: In vitro cytostatic activity (MTT) on HL-60. The note with it: HL-60; 3 h incubation, then 3 days in serum-containing medium; MTT assay; ± sd, three independent experiments with four parallels. The format is cell-based, human. The protocol:
The cells (HL-60 or MCF-7) were grown to confluency and were plated into 96-well plate with initial cell number of 5 × 10^3 per well. After 24 h incubation at 37 °C, cells were treated with the compounds at 1.28 × 10^–3–100 μM concentration range for 3 h in 200 μL final volume. Control cells were treated with serum free medium at 37 °C for 3 h. After incubation the cells were washed twice with serum free medium. For the analysis of the in vitro cytostatic effect, cells were cultured for an additional 72 h in serum containing medium. On day 4, MTT assay was carried out to determine the IC50 values of the compounds. Briefly, 45 μL of MTT solution was added to each well (2 mg/mL, dissolved in serum-free medium). Following the 4 h incubation, plates were centrifuged at 900 g for 5 min, and the supernatant was removed. The precipitated purple crystals were dissolved in 100 μL DMSO and the absorbance was determined at λ = 540 nm and λ = 620 nm using ELISA plate reader (iEMSReader, Labsystems, Finland). The percent of cytostasis was calculated using the following equation: Cytostatic effect (%) = [1 − (ODtreated/ODcontrol)] × 100; where ODtreated and ODcontrol correspond to the optical densities of the treated and the untreated control cells, respectively. In each case three independent experiments were carried out with four parallel measurements. […] The curves were defined using MicrocalTM Origin (version 9.2) software: cytostasis was plotted as a function of concentration, fitted to a sigmoidal curve, and based on this curve, the IC50 value was determined.
For orientation: Tetrazolium dyes change colour on reduction, which living cells bring about.

The subject of data set [3] is CHO-K1 cells. The data set is described as follows: Relative quantification of total internalised peptide by flow cytometry. The settings on record: CHO-K1, 1 h, DMEM-F12, internalisation ratio by flow cytometry, intact cells, 20.000 cells. The protocol: After incubation and washing the cells with HBSS, 500 μL 0.05% trypsin/EDTA 0.05% (37 °C) or 500 µL pronase 0.05% in 100 mM Tris-buffer (4 °C) was added for 5 min to hydrolyze the remaining extracellular peptide, the membrane-bound peptide and to detach cells. After addition of 100 µL enzyme inhibitors (complete mini at 4 °C (Roche) or trypsin inhibitor (soybean inhibitor 5 mg/mL) at 37 °C mixed with 100 μL bovine serum albumin (1 mg/mL). Cells were transferred into a microtube, centrifuged, washed with 1 mL 50 mM Tris-buffer pH 7.4, 0.1% BSA, and the cell pellet was suspended in 400 μL of PBS. The fluorescence of individual cells was analysed with a FACS Calibur flow cytometer. 20.000 cells were measured for each experimental condition. The mean fluorescence of a sample was obtained by subtracting the autofluorescence of cells from the measured mean fluorescence of cells in the presence of the peptide.
A general note: In flow cytometry, cells or beads pass a laser one at a time.

Data set [4] relates to HL-60 cells. The data set is described as follows: Cellular uptake by flow cytometry on HL-60 cells. It counts as cell-based, human. The note with it: 90 min, 37 °C, serum-free. As to the method: HL-60 cells were cultured as described above. To study the cellular uptake of fluorescent labelled compounds, 10^5 cells per well were plated on 24-well plates. After 24 h incubation at 37 °C, cells were treated with the compounds solved in the corresponding serum-free media for 90 min. The cellular uptake was analysed at 1, 5 and 10 µM concentrations. Cells treated with serum-free media for 90 min were used as control. After incubation, treatment solutions were removed and the cells were treated with 100 μL trypsin for 2 min to remove the membrane proteins in order to eliminate non-specific binding of conjugates. The effect of trypsin was terminated by 900 μL HPMI (glucose, NaHCO3, NaCl, HEPES, KCl, MgCl2, CaCl2, Na2HPO4·2H2O) (Kapus et al. [1994]) containing 10% foetal calf serum, and the cells were transferred from the plate to FACS-tubes. Cells were centrifuged at 216 g at 4 °C for 5 min and the supernatant was removed. After this procedure, cells were resuspended in 500 µL HPMI, and the intracellular fluorescence intensity of HL-60 cells was monitored (on channel FITC LP505; emission at λ = 505 nm; LP 505, BP 530/30) by flow cytometry (BD LSR II, BD Bioscience, San Jose, CA, equipped with 488 nm; Coherent Sapphire, 22 mW laser.) which is proportional to the cellular uptake. Data were analysed with FACSDiVa 5.0 software.

A word on the IC50: it is the concentration that inhibits the measured activity by half. The low end stands for greater potency in that assay, the high end for weaker potency in that assay. In the case of `CN(C)c1ccc(/N=N/c2ccc(C(=O)N[C@@H](CCCNC(=N)N)C(=O)N[C@@H](CCCNC(=N)N)C(=O)N[C@@H](CCCNC(=N)N)C(=O)N[C@@H](CCCNC(=N)N)C(=O)N[C@@H](CCCNC(=N)N)C(=O)N[C@@H](CCCNC(=N)N)C(=O)N[C@@H](CCCCNC(=O)c3ccc4c(c3)C(=O)OC43c4ccc(O)cc4Oc4cc(O)ccc43)C(N)=O)cc2)cc1` [Dabcyl–Arg6–Lys(Cf)–NH2] (X1-RRRRRRK(5FAM)-NH2), the “Time of binding to the cell membrane” value in the data set with HeLa cells is reported as 0.5 min. In the data set on HeLa cells, this molecule returned a Time of internalisation not above 1.5 min. The “Cytotoxic effect on CHO-K1 cells” value with CHO-K1 cells [1] is listed as “no cytotoxic effect”. Moreover, in the data set on HL-60 cells [2], half-maximal inhibition (IC50) was put at 21.8 ± 8.2 µM. Besides, the “4 °C/37 °C (Flow cyto.)” value came out at 0.14 with CHO-K1 cells [3] ([peptide] 1 μM), 0.04 in the data set with CHO-K1 cells [3] ([peptide] 2.5 μM), 0.05 in the data set with CHO-K1 cells [3] ([peptide] 5 μM) and 0.04 with CHO-K1 cells [3] ([peptide] 10 μM). Besides, the “Cellular uptake, times higher than that of octaarginine” value was determined as 4 times in the data set with HL-60 cells [4] (HL-60, 5 μM) and 1.5 times in the data set on HL-60 cells [4] (HL-60, 10 μM).
